Earlier results in US10695439B2, “Pyrrolobenzodiazepine conjugates” (Medimmune Limited, priority 2016, dated 2020).

Experiments:
[1] = test system: human tumour xenograft models; settings: quoted from 2014 REF impact study
[2] = test system: human tumour cell lines; settings: quoted from 2014 REF impact study
[3] = relative to SG2057, Hartley et al 2012

COc1ccc(C2=CN3C(=O)c4cc(OC)c(OCCCOc5cc6c(cc5OC)C(=O)N5C=C(c7ccc(OC)cc7)C[C@H]5C=N6)cc4N=C[C@@H]3C2)cc1 [SG2202]
activity in human tumour xenograft models [1]: curative activity | activity against a range of human tumour cell lines [2]: picomolar/sub-picomolar activity

C=C1C[C@H]2C=Nc3cc(OCCCOc4cc5c(cc4OC)C(=O)N4CC(=C)C[C@H]4C=N5)c(OC)cc3C(=O)N2C1 [SG2000]
cytotoxicity, times less cytotoxic than SG2057 [3]: at least 10 times
